IC50 data for one molecule are collected here from ChEMBL document CHEMBL3638666, “Selective kinase inhibitors” (2013).

Assay [1] has as its target Non-receptor tyrosine-protein kinase TYK2 (Homo sapiens, UniProt P29597). As to the kind of experiment: (§1) In Vitro Kinase Enzyme Assay: In vitro kinase enzyme assay using Jak3, Jak2, Jak1, and Tyk2.
For assay [2], the target named is Tyrosine-protein kinase JAK1 (Homo sapiens, UniProt P23458). The assay is described as §1.
Assay [3] addresses T1, Tyrosine-protein kinase JAK3 (Homo sapiens, UniProt P52333).
T1 sequence (P52333 whole entry): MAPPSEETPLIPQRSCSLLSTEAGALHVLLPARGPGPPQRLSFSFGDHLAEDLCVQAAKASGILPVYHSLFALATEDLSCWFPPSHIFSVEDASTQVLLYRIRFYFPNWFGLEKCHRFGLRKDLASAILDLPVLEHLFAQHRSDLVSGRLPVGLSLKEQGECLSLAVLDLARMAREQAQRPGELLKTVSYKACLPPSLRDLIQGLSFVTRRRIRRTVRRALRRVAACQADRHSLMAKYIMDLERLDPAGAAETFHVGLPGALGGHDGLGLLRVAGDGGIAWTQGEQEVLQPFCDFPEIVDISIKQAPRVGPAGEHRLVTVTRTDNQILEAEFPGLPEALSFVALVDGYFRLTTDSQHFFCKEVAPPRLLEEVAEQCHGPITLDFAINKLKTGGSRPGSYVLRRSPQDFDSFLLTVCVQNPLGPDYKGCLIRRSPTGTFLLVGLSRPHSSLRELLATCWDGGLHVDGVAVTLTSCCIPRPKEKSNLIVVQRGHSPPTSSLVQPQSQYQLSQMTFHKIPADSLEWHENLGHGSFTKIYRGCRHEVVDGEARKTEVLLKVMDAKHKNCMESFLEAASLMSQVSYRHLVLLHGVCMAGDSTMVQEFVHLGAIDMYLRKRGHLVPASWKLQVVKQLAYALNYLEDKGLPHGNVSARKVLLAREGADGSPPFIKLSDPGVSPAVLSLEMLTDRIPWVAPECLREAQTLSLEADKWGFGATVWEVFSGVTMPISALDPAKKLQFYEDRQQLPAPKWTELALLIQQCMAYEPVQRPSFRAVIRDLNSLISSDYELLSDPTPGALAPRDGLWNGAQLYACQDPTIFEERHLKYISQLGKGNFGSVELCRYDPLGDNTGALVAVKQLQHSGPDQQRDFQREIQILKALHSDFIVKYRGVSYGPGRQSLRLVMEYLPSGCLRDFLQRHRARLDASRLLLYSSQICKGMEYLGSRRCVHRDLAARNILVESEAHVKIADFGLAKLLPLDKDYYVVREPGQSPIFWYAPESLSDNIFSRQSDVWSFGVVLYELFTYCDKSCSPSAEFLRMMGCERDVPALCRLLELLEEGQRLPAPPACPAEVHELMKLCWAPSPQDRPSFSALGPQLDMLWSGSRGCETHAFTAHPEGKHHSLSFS
Described as §1.

Assay [4] addresses Tyrosine-protein kinase JAK2 (Homo sapiens, UniProt O60674). Described as §1.

Molecules are shown by their SMILES.

Sequence of Non-receptor tyrosine-protein kinase TYK2 (P29597 whole entry): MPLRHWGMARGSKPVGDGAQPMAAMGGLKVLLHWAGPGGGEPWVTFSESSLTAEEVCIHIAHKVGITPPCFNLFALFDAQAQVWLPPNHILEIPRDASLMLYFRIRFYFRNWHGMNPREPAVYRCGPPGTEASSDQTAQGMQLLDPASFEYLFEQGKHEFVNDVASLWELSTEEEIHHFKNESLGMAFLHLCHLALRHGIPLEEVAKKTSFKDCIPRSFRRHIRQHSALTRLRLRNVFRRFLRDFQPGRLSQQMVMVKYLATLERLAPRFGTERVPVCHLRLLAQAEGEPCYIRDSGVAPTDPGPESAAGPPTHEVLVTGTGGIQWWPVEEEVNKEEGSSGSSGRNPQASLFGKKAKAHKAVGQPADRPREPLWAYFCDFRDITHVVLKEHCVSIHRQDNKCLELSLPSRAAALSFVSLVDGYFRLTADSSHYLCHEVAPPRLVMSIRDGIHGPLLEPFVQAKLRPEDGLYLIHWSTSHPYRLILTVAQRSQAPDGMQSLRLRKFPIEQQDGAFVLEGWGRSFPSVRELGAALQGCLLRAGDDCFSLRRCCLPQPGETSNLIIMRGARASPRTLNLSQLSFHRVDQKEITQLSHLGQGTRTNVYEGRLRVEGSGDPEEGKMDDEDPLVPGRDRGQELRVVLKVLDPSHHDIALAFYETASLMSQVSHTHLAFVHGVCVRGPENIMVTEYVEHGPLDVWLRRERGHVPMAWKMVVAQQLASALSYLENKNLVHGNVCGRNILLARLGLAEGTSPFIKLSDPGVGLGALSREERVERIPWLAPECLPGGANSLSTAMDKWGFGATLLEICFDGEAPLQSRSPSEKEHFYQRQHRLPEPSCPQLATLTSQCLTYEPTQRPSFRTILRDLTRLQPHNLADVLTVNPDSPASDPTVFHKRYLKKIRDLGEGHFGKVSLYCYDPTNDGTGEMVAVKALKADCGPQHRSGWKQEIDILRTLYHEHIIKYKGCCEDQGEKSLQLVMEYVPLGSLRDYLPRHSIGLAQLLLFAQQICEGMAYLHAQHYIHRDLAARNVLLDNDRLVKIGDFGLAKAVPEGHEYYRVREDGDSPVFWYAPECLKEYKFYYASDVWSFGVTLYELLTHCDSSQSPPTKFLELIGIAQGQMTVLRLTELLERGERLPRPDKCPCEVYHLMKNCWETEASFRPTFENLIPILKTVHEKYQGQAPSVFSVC
Sequence of Tyrosine-protein kinase JAK2 (O60674 whole entry): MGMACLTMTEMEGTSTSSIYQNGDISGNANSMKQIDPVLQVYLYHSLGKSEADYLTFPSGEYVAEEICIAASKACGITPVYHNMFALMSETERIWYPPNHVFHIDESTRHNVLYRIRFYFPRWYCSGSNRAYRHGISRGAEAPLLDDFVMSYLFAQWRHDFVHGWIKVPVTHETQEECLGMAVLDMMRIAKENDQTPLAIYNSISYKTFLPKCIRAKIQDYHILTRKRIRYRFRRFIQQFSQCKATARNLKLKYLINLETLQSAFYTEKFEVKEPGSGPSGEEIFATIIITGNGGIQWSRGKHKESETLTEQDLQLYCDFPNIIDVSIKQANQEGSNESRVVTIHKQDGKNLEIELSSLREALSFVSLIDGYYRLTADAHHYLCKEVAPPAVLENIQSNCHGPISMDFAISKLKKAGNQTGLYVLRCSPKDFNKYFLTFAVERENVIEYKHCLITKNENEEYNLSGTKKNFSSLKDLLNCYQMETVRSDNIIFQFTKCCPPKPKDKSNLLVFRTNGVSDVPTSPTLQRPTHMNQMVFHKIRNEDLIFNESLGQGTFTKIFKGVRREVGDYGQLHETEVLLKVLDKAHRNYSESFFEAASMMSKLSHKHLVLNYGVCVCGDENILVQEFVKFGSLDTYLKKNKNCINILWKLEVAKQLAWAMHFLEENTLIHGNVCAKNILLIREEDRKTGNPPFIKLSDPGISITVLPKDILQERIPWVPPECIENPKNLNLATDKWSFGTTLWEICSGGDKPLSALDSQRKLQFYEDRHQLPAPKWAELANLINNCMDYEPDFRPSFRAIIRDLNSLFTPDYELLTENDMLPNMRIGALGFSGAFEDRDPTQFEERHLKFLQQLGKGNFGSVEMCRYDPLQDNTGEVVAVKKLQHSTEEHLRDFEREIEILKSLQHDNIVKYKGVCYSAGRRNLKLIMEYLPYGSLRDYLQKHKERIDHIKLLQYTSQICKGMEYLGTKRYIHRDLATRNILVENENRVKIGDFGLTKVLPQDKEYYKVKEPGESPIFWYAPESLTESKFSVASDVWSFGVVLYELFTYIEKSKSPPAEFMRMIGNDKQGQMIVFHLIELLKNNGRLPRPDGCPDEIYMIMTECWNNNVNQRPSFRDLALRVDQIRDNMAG
Sequence of Tyrosine-protein kinase JAK1 (P23458 whole entry): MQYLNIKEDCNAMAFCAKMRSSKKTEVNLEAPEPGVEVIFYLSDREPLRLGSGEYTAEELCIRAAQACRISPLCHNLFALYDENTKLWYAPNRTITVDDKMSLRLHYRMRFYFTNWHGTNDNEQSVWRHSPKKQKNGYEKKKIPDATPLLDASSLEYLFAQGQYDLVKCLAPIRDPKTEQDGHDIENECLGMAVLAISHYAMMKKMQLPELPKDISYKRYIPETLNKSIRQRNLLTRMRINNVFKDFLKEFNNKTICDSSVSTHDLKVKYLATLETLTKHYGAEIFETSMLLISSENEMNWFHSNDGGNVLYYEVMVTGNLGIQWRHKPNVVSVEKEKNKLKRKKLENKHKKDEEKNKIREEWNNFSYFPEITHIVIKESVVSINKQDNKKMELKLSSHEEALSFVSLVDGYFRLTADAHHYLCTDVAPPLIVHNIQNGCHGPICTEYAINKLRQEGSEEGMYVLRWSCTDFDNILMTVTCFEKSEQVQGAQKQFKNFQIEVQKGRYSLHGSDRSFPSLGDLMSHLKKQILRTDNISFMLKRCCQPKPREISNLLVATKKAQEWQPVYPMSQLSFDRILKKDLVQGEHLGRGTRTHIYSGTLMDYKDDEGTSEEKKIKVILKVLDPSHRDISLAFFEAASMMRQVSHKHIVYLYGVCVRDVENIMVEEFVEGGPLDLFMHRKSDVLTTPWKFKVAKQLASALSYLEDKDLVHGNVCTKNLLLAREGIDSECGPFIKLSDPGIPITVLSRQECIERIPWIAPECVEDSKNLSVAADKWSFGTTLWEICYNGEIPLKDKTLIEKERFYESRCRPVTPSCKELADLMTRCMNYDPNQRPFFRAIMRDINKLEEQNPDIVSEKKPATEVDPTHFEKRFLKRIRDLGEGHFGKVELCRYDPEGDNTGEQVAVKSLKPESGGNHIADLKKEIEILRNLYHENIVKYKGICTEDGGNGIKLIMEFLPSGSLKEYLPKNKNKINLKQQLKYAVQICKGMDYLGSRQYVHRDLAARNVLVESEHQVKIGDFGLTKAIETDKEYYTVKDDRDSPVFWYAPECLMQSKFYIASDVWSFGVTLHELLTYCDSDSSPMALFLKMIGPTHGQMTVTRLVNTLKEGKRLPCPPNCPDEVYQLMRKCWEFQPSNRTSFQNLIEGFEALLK

On to `O=C(CBr)Nc1cccc(-c2cnc3ccccc3n2)c1`, for which the IC50 in assay [1] was > 10 µM; in assay [2], > 10 µM; in assay [3], 0.0003 µM; in assay [4] it was > 10 µM.

One may read the IC50 as the concentration at which inhibition is half-maximal. High values mean a need for much substance, low ones inhibition by little substance.
